Values after ≈ are worked out from the molar mass of the structure shown.
Experiments:
[1] = system: Botrytis cinerea; assay: Volatile application to strawberries in clamshells, treated clamshell vs fruit transfer (Example 21); assay type: in vivo; details: 0.1 mg/L headspace
Description: Eight strawberries (per repetition, in triplicate) are placed in an industry standard 1-lb PET clamshell with the stem-end facing down.
Compound A is then mixed with acetone and 100 μL of the mixture is pipetted into a small glass tube. […] Compound A is then introduced into the cabinet containing the clamshell by using the sublimation device set at 180° C. to achieve a final headspace concentration of 0.1 mg/L and equilibrated at 1° C. for 0.5 or 1 hour.
After incubation, both clamshells are removed from the treatment chamber. One clamshell is undisturbed while the fruit from the second clamshell are immediately transferred into a new untreated clamshell. All clamshells are then held at 1° C. for 5 days and then evaluated during an additional 5 days at 21° C. During the 5 days at 21° C., the fruits are evaluated for gray mold severity (scale 0 to 4, with ≤1 indicating marketable fruit and 4 indicating ≥50% of fruit surface covered by pathogen). […] The treated clamshell produces marketable fruit up to 3 days with 0.5 hour treatment (0.1), whereas fruits in new clamshells are unmarketable (2.7). Similarly, the treated clamshell produces marketable fruit up to 5 days with 1 hour treatment (0.4), whereas fruits in new clamshells are unmarketable (1.6). Thus, treatments where berries remain in the treated clamshells have the best level of control due to the compound further volatilizing over time off of the clamshell surface.

[2] = system: Phytophthora capsici; assay: Volatile MIC assay (Example 11); assay type: cell-based; details: P. capsici
Description: (§1) A 3-mL volume of full-strength Potato Dextrose Agar (PDA) is added to each well. After cooling, 1 μL of 1×10^5 spores per mL of Botrytis cinerea, Penicillium expansum, Alternaria alternata, Glomerella cingulata, Penicillium digitatum, Monilinia fruticola, Aspergillus brasiliensis, Colletotrichum acutatum, Fusarium sambucinum, Phytophthora capsici, Geotrichum candidum, Aspergillus niger, Diplodia gossypina or Diaporthe citrii suspension is spotted onto the center of the agar. A Whatman #1 filter disk (Cat. No. 1001-0155) is placed, in duplicate, on the underside of a polyethylene PCR plate sealing film. […] The headspace around the inoculum is then sealed inside the well by the film with the adhering disk containing the fungicide by inverting the plates over the treated disks and sealing to prevent any of the chemical from flaking from the disk and falling onto the inoculated agar. After 3 days of storage at 23° C., cultures are evaluated for percent growth relative to control.

[3] = system: Geotrichum candidum; assay: Volatile MIC assay (Example 11); assay type: cell-based; details: G. candidum
Description: as §1

[4] = system: Fusarium sambucinum; assay: Volatile MIC assay (Example 11); assay type: cell-based; details: F. sambucinum
Description: as §1

[5] = system: Monilinia fruticola; assay: Volatile MIC assay (Example 11); assay type: cell-based; details: M. fruticola
Description: as §1

[6] = system: Botrytis cinerea; assay: Volatile MIC assay (Example 11); assay type: cell-based; details: B. cinerea
Description: as §1

[7] = system: Colletotrichum acutatum; assay: Volatile MIC assay (Example 11); assay type: cell-based; details: C. acutatum
Description: as §1

[8] = system: Aspergillus brasiliensis; assay: Volatile MIC assay (Example 11); assay type: cell-based; details: A. brasiliensis
Description: as §1

[9] = system: Penicillium digitatum; assay: Volatile MIC assay (Example 11); assay type: cell-based; details: P. digitatum
Description: as §1

[10] = system: Alternaria alternata; assay: Volatile MIC assay (Example 11); assay type: cell-based; details: A. alternata
Description: as §1

[11] = system: Diplodia gossypina; assay: Volatile MIC assay (Example 11); assay type: cell-based; details: Lasiodiplodia theobromae, D. gossypina
Description: as §1

[12] = system: Aspergillus niger; assay: Volatile MIC assay (Example 11); assay type: cell-based; details: A. niger
Description: as §1

[13] = system: Penicillium expansum; assay: Volatile MIC assay (Example 11); assay type: cell-based; details: P. expansum
Description: as §1

[14] = system: Diaporthe citrii; assay: Volatile MIC assay (Example 11); assay type: cell-based; details: D. citrii
Description: as §1

[15] = system: Botrytis cinerea; assay: Volatile release from different materials, MIC (Example 13); assay type: cell-based
Description: An in vitro assay is used to evaluate the ability of Compound A to volatilize from different materials and control fungal growth. […] A 3-mL volume of full-strength Potato Dextrose Agar (PDA) is added to each well. […] Plates are inoculated immediately prior to volatile fungicide treatment. The various materials are placed, in duplicate, on the underside of a polyethylene PCR plate sealing film. […] The acetone is permitted to evaporate for five minutes. The headspace around the Botrytis cinerea inoculum is then sealed inside the well by the film with the adhering disk of material containing the fungicide. Plates are inverted, placed over the treated disks and sealed to prevent any of the chemical from flaking from the disk and falling onto the inoculated agar. After three days of storage at 23° C., the cultures are evaluated for percent growth relative to control based on measurement of fungal colony diameter.

[16] = system: Botrytis cinerea; assay: Volatile release from materials treated by sublimation (Example 14); assay type: cell-based
Description: An in vitro assay is used to evaluate the ability of compound A to volatilize from different materials and control fungal growth. Cardboard box (Category 1), PET plastic (Polyethylene terepthalate—PET) and Polyethylene are used. The materials are cut into equal dimensions (10×19 cm^2) and placed inside a 36-L acrylic desiccator cabinet (Fisher Scientific, cat no. 08-642-23C) in duplicate.
The acetone is allowed to evaporate for 1 minute at 60° C. Compound A is then introduced as a gas into the cabinets by a sublimation device (copper tube heated to 180° C. with fan flow at 0.5 L/min) to achieve a final headspace concentration of 0.3, 0.06 and 0.012 mg/L). The chambers are then incubated at 23° C. for 24 hours, then treated materials are carefully removed and placed inside a clean 10.8 cup SnapWare airtight container (Model #109842) containing a 10-cm diameter Petri dish with PDA and inoculated with 1 μL of […] of B. cinerea. The containers are then tightly sealed for 3 days at 23° C. After 3 days of storage, cultures are evaluated for percent growth relative to control.

With `OB1OCc2cc(F)ccc21` [Compound A, 5-fluoro-1,3-dihydro-1-hydroxy-2,1-benzoxaborole] the “Disease Severity (0 to 4)” value ([1]; Treated clamshell, treatment time 0.5 hour, Day 1) was 0.0, the “Disease Severity (0 to 4)” value ([1]; Treated clamshell, treatment time 0.5 hour, Day 3) was 0.1 and the “Disease Severity (0 to 4)” value ([1]; Treated clamshell, treatment time 0.5 hour, Day 5) was 2.3. The “Disease Severity (0 to 4)” value ([1]; Treated clamshell, treatment time 1 hour, Day 1) was 0.0, the “Disease Severity (0 to 4)” value ([1]; Treated clamshell, treatment time 1 hour, Day 3) was 0.0 and the “Disease Severity (0 to 4)” value ([1]; Treated clamshell, treatment time 1 hour, Day 5) was 0.4. For the same compound, the “Disease Severity (0 to 4)” value ([1]; Untreated clamshell (fruit transfer), treatment time 0.5 hour, Day 1) was 0.0, the “Disease Severity (0 to 4)” value ([1]; Untreated clamshell (fruit transfer), treatment time 0.5 hour, Day 3) was 2.7 and the “Disease Severity (0 to 4)” value ([1]; Untreated clamshell (fruit transfer), treatment time 0.5 hour, Day 5) was 3.4. For the same compound, the “Disease Severity (0 to 4)” value ([1]; Untreated clamshell (fruit transfer), treatment time 1 hour, Day 1) was 0.0, the “Disease Severity (0 to 4)” value ([1]; Untreated clamshell (fruit transfer), treatment time 1 hour, Day 3) was 0.1 and the “Disease Severity (0 to 4)” value ([1]; Untreated clamshell (fruit transfer), treatment time 1 hour, Day 5) was 1.6. For the same compound, the MIC [2] was 1.1 µg/mL (≈ 7.24 µM), the MIC [3] was 8.9 µg/mL (≈ 58.6 µM) and the MIC [4] was 1.1 µg/mL (≈ 7.24 µM). The MIC [5] was 2.2 µg/mL (≈ 14.5 µM), the MIC [6] was 2.2 µg/mL (≈ 14.5 µM) and the MIC [7] was 4.4 µg/mL (≈ 29 µM). For the same compound, the MIC [8] was 2.2 µg/mL (≈ 14.5 µM), the MIC [9] was 2.2 µg/mL (≈ 14.5 µM) and the MIC [10] was 2.2 µg/mL (≈ 14.5 µM). The MIC [11] was 1.1 µg/mL (≈ 7.24 µM), the MIC [12] was 2.2 µg/mL (≈ 14.5 µM) and the MIC [13] was 1.1 µg/mL (≈ 7.24 µM). It also gave an MIC [14] of 2.2 µg/mL (≈ 14.5 µM), an MIC ([15]; volatile release from Acrylic-Coated Fiberglass) of 0.56 µg/mL (≈ 3.69 µM) and an MIC ([15]; volatile release from Aramid) of 2.2 µg/mL (≈ 14.5 µM). It also gave an MIC ([15]; volatile release from Aramid and Fiberglass) of 0.56 µg/mL (≈ 3.69 µM), an MIC ([15]; volatile release from Cardboard) of 2.2 µg/mL (≈ 14.5 µM) and an MIC ([15]; volatile release from Cellulose) of 0.56 µg/mL (≈ 3.69 µM). It also gave an MIC ([15]; volatile release from Fiberglass) of 0.56 µg/mL (≈ 3.69 µM), an MIC ([15]; volatile release from PTFE) of 1.1 µg/mL (≈ 7.24 µM) and an MIC ([15]; volatile release from PTFE-Coated Fiberglass) of 0.56 µg/mL (≈ 3.69 µM). It also gave an MIC ([15]; volatile release from Polyethylene PCR Film) of 0.28 µg/mL (≈ 1.84 µM), an MIC ([15]; volatile release from Silica) of 0.56 µg/mL (≈ 3.69 µM) and an MIC ([15]; volatile release from Silicone-Coated Fiberglass) of 0.56 µg/mL (≈ 3.69 µM). For the same compound, the MIC ([15]; volatile release from Vinyl-Coated Polyester) was 0.56 µg/mL (≈ 3.69 µM), the “Incidence (%)” value ([16]; Rate 0.012 mg/L, Cardboard) was 100.0% and the “Incidence (%)” value ([16]; Rate 0.012 mg/L, Clamshell) was 100.0%. The “Incidence (%)” value ([16]; Rate 0.012 mg/L, Polyethylene) was 99.0%, the “Incidence (%)” value ([16]; Rate 0.06 mg/L, Cardboard) was 91.7% and the “Incidence (%)” value ([16]; Rate 0.06 mg/L, Clamshell) was 100.0%. The “Incidence (%)” value ([16]; Rate 0.06 mg/L, Polyethylene) was 86.7%, the “Incidence (%)” value ([16]; Rate 0.3 mg/L, Cardboard) was 9.3% and the “Incidence (%)” value ([16]; Rate 0.3 mg/L, Clamshell) was 4.1%. For the same compound, the “Incidence (%)” value ([16]; Rate 0.3 mg/L, Polyethylene) was 4.9%.
